Reference: ChEMBL document CHEMBL5518188, “Discovery of 4-amino-1,6-dihydro-7H-pyrrolo[2,3-d]pyridazin-7-one derivatives as potential receptor-interacting serine/threonine-protein kinase 1 (RIPK1) inhibitors” (Eur J Med Chem, 2024)
Activity calls are given as the source filed them. No cut-off for these calls is given here.

Tests used:
Mus musculus [1] = test: In vivo anti-necrotptic activity in SIRS mouse model assessed as protection from body temperature loss at 10 mg/kg, po measured upto 6 hrs; type: functional, organism-based
[2] = target: T1, Receptor-interacting serine/threonine-protein kinase 3 (Homo sapiens, UniProt Q9Y572); test: Binding affinity to RIPK3 (unknown origin) assessed as dissociation constant
Target sequence in this assay (Q9Y572 whole entry, the tested form may be a part): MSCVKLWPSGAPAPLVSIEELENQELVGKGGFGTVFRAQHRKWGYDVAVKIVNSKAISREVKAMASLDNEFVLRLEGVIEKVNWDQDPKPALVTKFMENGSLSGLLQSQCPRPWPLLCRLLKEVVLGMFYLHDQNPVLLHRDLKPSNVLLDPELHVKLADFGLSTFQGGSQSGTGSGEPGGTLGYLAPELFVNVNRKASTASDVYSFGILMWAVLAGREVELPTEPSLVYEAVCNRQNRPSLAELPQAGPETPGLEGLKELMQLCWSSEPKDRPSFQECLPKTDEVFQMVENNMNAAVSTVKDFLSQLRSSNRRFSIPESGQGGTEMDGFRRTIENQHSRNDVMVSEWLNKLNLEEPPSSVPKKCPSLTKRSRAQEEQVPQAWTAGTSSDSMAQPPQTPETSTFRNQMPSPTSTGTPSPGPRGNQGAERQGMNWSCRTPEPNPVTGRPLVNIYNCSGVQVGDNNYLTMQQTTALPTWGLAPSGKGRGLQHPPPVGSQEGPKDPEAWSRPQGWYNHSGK

[3] = target: T2, Discoidin domain-containing receptor 2 (Homo sapiens) (UniProt Q16832); test: Inhibition of DDR2 (unknown origin)
T2 sequence (whole entry): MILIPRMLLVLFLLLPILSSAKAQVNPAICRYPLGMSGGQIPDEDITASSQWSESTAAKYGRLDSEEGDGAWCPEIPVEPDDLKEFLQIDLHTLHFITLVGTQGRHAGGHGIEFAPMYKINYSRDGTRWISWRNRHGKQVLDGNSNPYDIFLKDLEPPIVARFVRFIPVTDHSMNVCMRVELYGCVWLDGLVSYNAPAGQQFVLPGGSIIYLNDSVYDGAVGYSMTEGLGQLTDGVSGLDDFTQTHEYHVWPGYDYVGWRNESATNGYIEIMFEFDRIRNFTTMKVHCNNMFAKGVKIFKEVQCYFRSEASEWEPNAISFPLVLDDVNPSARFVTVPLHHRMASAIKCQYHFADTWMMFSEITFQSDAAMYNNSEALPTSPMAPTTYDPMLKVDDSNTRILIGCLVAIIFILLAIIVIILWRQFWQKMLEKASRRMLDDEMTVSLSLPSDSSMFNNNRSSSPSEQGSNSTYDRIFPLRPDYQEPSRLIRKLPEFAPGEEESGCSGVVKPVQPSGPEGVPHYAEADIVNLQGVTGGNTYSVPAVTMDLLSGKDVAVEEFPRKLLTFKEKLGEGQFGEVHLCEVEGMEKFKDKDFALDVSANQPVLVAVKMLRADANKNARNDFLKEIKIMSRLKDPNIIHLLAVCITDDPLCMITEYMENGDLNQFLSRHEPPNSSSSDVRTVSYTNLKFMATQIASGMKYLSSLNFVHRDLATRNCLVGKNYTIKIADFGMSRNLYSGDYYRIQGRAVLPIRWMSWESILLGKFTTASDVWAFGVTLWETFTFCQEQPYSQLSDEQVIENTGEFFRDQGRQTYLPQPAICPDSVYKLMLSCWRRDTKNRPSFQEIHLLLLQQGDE

[4] = Tmax in BALB/c mouse at 10 mg/kg, iv; type: ADME, organism-based; settings: in vivo
[5] = Clearance in BALB/c mouse at 10 mg/kg, po; type: ADME, organism-based; settings: BALB/c, in vivo
L929 = test: Anti-necroptosis activity against TSZ-induced mouse L929 cells; type: functional, cell-based
[6] = target: T3, Mixed lineage kinase domain-like protein (Homo sapiens) (UniProt Q8NB16); settings: HT-29, dose 300.0 nM, time <= 6.0 hrs, TDE = time-dependent effect
T3 sequence (whole entry): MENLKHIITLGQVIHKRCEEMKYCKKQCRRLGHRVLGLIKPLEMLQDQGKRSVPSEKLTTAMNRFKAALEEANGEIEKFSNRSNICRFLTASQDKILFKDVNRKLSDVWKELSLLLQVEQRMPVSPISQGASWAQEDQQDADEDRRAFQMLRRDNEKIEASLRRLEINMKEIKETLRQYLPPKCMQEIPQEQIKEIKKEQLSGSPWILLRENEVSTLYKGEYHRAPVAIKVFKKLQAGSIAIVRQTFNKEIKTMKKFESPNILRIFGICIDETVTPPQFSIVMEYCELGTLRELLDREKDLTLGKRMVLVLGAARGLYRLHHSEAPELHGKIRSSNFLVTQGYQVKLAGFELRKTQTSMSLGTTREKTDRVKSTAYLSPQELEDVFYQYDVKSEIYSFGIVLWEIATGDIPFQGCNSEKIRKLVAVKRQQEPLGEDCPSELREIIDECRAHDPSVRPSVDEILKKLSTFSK
Description: Inhibition of MLKL phosphorylation in TSZ-induced human HT-29 cells at 300 nM by Western blot analysis

[7] = Oral bioavailability in BALB/c mouse at 10 mg/kg; type: ADME, organism-based; settings: BALB/c, in vivo
[8] = Apparent volume of distribution in BALB/c mouse at 10 mg/kg, po; type: ADME, organism-based; settings: in vivo
[9] = Cmax in BALB/c mouse at 10 mg/kg, iv; type: ADME, organism-based; settings: in vivo
[10] = Half life in BALB/c mouse at 10 mg/kg, iv; type: ADME, organism-based; settings: in vivo
[11] = target: BDNF/NT-3 growth factors receptor (Homo sapiens) (UniProt Q16620); test: Inhibition of TRKB (unknown origin)
[12] = target: Vascular endothelial growth factor receptor 2 (Homo sapiens) (UniProt P35968); test: Inhibition of KDR (unknown origin)
[13] = target: Angiopoietin-1 receptor (Homo sapiens) (UniProt Q02763); test: Inhibition of Tie2 (unknown origin)
HT-29 = test: Anti-necroptosis activity against TSZ-induced human HT-29 cells by microscopic analysis; type: functional, cell-based
[14] = Cmax in BALB/c mouse at 10 mg/kg, po; type: ADME, organism-based; settings: in vivo
[15] = Metabolic stability in cryopreserved human liver microsome assessed as half life; type: ADME; settings: cryopreserved liver microsomes
[16] = Clearance in BALB/c mouse at 10 mg/kg, iv; type: ADME, organism-based; settings: in vivo
[17] = Selectivity ratio of Kd for binding affinity to RIPK1 (unknown origin) assessed as dissociation constant to Kd for binding affinity to RIPK3 (unknown origin) assessed as dissociation constant
[18] = target: T1, Receptor-interacting serine/threonine-protein kinase 3; settings: HT-29, dose 300.0 nM, time <= 6.0 hrs, TDE = time-dependent effect
Target sequence in this assay (Q9Y572 whole entry, looked up, the tested form may be a part): as the sequence (Q9Y572 whole entry, the tested form may be a part) above
Description: Inhibition of RIPK3 phosphorylation in TSZ-induced human HT-29 cells at 300 nM by Western blot analysis

Mus musculus [19] = test: In vivo anti-necrotptic activity in po dosed SIRS mouse model assessed as reduction in IL-6 level measured at 4 hrs; type: functional, organism-based; settings: dose 2.5-10 mg/kg

Chain of BDNF/NT-3 growth factors receptor (Homo sapiens) (Q16620 32-822 limits assumed): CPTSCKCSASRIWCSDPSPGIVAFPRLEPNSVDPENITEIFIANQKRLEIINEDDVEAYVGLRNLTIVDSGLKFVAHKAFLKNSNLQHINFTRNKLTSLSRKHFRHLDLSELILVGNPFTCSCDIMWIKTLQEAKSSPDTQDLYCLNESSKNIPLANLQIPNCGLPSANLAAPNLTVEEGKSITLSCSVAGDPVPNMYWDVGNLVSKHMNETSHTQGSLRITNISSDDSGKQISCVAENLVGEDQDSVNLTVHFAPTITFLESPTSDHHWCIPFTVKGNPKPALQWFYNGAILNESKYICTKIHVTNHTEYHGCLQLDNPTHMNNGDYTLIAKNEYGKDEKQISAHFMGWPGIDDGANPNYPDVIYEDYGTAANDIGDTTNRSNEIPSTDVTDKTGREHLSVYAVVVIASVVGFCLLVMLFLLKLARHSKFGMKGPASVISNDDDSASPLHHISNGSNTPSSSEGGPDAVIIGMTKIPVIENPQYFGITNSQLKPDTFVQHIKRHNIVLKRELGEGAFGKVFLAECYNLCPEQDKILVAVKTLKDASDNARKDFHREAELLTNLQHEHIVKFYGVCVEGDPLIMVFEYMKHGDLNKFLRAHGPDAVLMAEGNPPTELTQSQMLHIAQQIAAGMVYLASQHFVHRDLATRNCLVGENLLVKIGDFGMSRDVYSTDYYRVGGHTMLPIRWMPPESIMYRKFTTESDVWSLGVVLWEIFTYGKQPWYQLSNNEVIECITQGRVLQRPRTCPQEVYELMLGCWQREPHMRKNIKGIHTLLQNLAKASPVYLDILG
Chain of Vascular endothelial growth factor receptor 2 (Homo sapiens) (P35968 whole entry): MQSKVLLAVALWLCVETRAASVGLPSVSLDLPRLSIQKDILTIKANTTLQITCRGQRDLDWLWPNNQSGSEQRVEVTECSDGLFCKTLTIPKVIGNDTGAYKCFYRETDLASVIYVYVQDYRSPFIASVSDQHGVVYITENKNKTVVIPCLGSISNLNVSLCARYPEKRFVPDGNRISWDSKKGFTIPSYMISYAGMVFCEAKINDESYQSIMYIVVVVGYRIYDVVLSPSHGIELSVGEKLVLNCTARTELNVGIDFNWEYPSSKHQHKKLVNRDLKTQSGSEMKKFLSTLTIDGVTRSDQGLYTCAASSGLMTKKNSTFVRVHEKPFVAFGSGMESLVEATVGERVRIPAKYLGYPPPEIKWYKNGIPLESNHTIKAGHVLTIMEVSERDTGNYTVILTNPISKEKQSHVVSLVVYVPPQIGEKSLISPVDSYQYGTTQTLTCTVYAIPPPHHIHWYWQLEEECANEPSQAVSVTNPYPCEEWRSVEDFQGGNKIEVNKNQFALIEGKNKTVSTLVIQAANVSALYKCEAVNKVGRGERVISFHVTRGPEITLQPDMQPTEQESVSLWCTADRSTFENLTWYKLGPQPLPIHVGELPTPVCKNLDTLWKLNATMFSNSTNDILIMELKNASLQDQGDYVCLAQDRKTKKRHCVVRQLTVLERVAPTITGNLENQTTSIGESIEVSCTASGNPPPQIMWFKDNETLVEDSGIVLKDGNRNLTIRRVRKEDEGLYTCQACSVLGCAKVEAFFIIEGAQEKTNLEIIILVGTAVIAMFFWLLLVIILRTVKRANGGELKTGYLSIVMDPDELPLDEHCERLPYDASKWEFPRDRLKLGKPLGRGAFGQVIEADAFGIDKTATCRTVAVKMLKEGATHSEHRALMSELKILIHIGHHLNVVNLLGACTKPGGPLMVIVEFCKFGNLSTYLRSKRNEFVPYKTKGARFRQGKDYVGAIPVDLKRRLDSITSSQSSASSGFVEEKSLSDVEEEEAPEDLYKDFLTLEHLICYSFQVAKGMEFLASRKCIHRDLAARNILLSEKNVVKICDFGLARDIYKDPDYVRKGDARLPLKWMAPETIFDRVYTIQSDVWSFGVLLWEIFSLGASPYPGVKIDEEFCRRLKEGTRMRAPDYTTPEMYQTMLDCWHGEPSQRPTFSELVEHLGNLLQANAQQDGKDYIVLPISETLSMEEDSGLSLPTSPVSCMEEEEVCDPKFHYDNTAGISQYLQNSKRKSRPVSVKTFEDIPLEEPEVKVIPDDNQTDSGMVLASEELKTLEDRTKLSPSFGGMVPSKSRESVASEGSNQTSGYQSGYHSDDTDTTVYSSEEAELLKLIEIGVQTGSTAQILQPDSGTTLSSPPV
Chain of Angiopoietin-1 receptor (Homo sapiens) (Q02763 whole entry): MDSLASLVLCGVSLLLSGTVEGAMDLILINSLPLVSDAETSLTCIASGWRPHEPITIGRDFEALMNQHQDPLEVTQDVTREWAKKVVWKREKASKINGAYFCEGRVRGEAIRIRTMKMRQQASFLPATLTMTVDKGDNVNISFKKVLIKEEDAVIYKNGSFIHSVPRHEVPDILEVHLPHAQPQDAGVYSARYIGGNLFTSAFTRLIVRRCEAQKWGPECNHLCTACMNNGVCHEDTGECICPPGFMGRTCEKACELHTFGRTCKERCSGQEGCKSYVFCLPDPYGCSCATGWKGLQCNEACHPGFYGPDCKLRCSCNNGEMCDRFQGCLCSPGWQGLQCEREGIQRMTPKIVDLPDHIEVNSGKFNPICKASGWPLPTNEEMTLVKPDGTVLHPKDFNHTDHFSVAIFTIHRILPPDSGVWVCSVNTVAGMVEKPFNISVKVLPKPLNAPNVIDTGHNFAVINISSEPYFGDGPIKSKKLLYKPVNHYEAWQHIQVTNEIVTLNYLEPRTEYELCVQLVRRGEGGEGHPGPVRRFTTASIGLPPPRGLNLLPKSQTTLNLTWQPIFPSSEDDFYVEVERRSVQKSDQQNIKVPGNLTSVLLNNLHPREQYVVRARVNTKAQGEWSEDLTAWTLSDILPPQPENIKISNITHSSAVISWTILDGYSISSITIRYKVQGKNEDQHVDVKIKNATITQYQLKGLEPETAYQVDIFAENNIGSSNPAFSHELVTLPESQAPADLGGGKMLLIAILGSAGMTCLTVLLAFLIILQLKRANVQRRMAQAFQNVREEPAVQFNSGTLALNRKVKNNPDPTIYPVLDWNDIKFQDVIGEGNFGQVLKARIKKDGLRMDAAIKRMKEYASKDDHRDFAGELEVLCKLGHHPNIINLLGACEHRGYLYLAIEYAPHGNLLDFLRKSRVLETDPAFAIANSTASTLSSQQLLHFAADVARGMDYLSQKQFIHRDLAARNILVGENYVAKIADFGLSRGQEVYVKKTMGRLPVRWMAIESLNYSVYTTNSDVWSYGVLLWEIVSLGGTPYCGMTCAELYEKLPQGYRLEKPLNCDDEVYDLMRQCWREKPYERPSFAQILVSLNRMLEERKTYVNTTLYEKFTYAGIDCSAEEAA

**Q.** What does the source list for CC1(Cn2cc(-c3ccc4c(c3)CCN4C(=O)Cc3cccc(OC(F)(F)F)c3)c3c(N)n[nH]c(=O)c32)COC1?
**A.** Activity (Mus musculus [1]): Active; Kd [2]: 1700 nM; inhibition [3]: Active; Tmax [4]: 4.8 min; CL/F [5]: 17.3 mL/min/kg; EC50 (L929): 1.06 nM; inhibition [6]: Tde; bioavailability [7]: 59.5%; Vz [8]: 1.24 L/kg; Cmax [9]: 8040 ng/mL; half-life [10]: 49.8 min; inhibition [11]: Active; inhibition [12]: Active; inhibition [13]: Active; Activity (HT-29): Active; Cmax [14]: 2700 ng/mL; half-life [15]: 75.3 min; clearance [16]: 17.3 mL/min/kg; Selectivity ratio [17]: 486; inhibition [18]: Tde; Activity (Mus musculus [19]): Dose-Dependent Effect
